Source: article PMC13130965, “An Integrated Approach Combining Regulatory Tests in tg(cyp19a1b:GFP) Zebrafish Embryos to Assess Toxicity, Developmental Effects, and Estrogenic Activity of Chemicals: A Case Study with Bisphenol A Substitutes” (Environmental Science & Technology, 2026)
In brackets after ≈: the same amount, converted by molar mass.

Experiment: Refined Fish Embryo Acute Toxicity test (FET, OECD TG 236): mortality
Type: in vivo, zebrafish (Danio rerio)
Details: tg(cyp19a1b:GFP), zebrafish, in vivo, LC50 (96h) experimental (FET test), nominal, brackets 95% CI
Experimental: Exposures were carried out in presaturated 24-well plates containing one embryo per well in 2 mL of test solution. The exposure was performed under semistatic conditions, with daily renewal of the test solution. The concentration ranges tested, along with a control with the same percentage of solvent alone, are recapitulated in Table S1. All exposure concentrations are reported as nominal. During the time course of the refined FET tests, embryos were observed after 8 h (coagulation), 24 h (lack of somite formation and nondetachment of the tail), and 48, 72, and 96 h of exposure (nondetection of the heartbeat). […] Moreover, hatching rate and nonlethal developmental effects (i.e., yolk deformity, growth retardation, spontaneous movement, edema, blood tail circulation, heart rate, pigmentation, head and tail/spinal malformations, and hemorrhage) were monitored daily. Tail/spinal malformations included lordosis, kyphosis, scoliosis, and reduced tail length.
This analysis considered all nonlethal developmental end points monitored in the refined FET assay (see above), except effects on hatching, pigmentation, spontaneous movement, and blood circulation. A teratogenic index (TI) was then calculated as the ratio LC50/EC50.
Baseline toxicity and experimental FET LC50 values were used to calculate toxic ratios (TR = predicted baseline toxicity LC50/experimental FET LC50). Compounds with TR < 10 were considered as baseline toxicants.

CC(C)(c1ccc(O)cc1)c1ccc(O)cc1 [BPA, 4-[2-(4-hydroxyphenyl)propan-2-yl] phenol]
LC50 at 96 h: 14.1 µg/mL (≈ 61.9 µM)
